In ChEMBL document CHEMBL5505995, “Discovery of novel urea derivatives as ferroptosis and autophagy inducer for human colon cancer treatment” (Eur J Med Chem, 2024):
Activity calls are given as the source filed them.

Tests used:
HT-29 [1] = test: Induction of ferroptosis in human HT-29 cells assessed as increase in intracellular malondialdehyde accumulation incubated for 48 hrs in presence of ferroptosis inhibitor deferoxamine; format: functional, cell-based
HT-29 [2] = test: Induction of cell cycle arrest in human HT-29 cells assessed as accumulation of cells at G2/M phase at 4 uM incubated for 48 hrs by propidium iodide staining based flow cytometric analysis relative to control; format: functional
HT-29 [3] = test: Induction of cell death in human HT-29 cells incubated for 48 hrs in presence of ferroptosis inhibitor deferoxamine by MTT assay; format: functional, cell-based
Cell membrane [4] = test: Induction of mitochondrial membrane potential loss in human HT-29 cells assessed as decrease in orange-red fluorescence incubated for 48 hrs by JC-1 staining based flow cytometry; format: cell membranes
HT-29 [5] = test: Induction of ferroptosis in human HT-29 cells assessed as increase in mitochondrial membrane density incubated for 48 hrs by transmission electron microscopic analysis; format: functional, cell-based
HT-29 [6] = test: Induction of ferroptosis in human HT-29 cells assessed as decrease in intracellular GSH level incubated for 48 hrs in presence of autophagy inhibitor 3-methyladenine; format: functional, cell-based
HT-29 [7] = test: Antiproliferative activity against human HT-29 cells assessed as inhibition of cell growth incubated for 48 hrs in presence of autophagy inhibitor Spautin-1 by MTT assay; format: functional, cell-based
HT-29 [8] = test: Induction of apoptosis in human HT-29 cells at 1 to 4 uM incubated for 48 hrs by Annexin V-FITC/PI staining based flow cytometry; format: functional, cell-based; conditions: dose 1-4 µM
Cell membrane [9] = test: Induction of mitochondrial membrane potential loss in human HT-29 cells assessed as increase in green fluorescence incubated for 48 hrs by JC-1 staining based flow cytometry; format: cell membranes
HT-29 [10] = test: Induction of ferroptosis in human HT-29 cells assessed as increase in intracellular iron level incubated for 48 hrs in presence of autophagy inhibitor 3-methyladenine; format: functional, cell-based
HT-29 [11] = test: Induction of autophagy in human HT-29 cells assessed as upregulation of ATG5 protein expression incubated for 48 hrs by Western blotting analysis; format: functional, cell-based
HT-29 [12] = test: Induction of ferroptosis in human HT-29 cells assessed as decrease in GPx level incubated for 48 hrs in presence of ferroptosis inhibitor CPX; format: functional, cell-based
HT-29 [13] = test: Induction of ferroptosis in human HT-29 cells assessed as decrease in GPX4 expression incubated for 48 hrs by Western blotting analysis; format: functional, cell-based
HT-29 [14] = test: Induction of ferroptosis in human HT-29 cells assessed as increase in intracellular malondialdehyde accumulation incubated for 48 hrs in presence of ROS scavenger NAC; format: functional, cell-based
HT-29 [15] = test: Antiproliferative activity against human HT-29 cells assessed as inhibition of cell growth incubated for 48 hrs by MTT assay; format: functional, cell-based; conditions: HT-29, 48 h
HT-29 [16] = test: Induction of autophagy in human HT-29 cells assessed as increase in MDC positive cells incubated for 48 hrs by MDC staining based flow cytometric analysis; format: functional, cell-based
HT-29 [17] = test: Induction of ferroptosis in human HT-29 cells assessed as mitochondrial morphological change incubated for 48 hrs by transmission electron microscopic analysis; format: functional, cell-based
HT-29 [18] = test: Induction of ferroptosis in human HT-29 cells assessed as increase in intracellular malondialdehyde accumulation incubated for 48 hrs; format: functional, cell-based
HT-29 [19] = test: Induction of ferroptosis in human HT-29 cells assessed as increase in intracellular lipid peroxidation accumulation incubated for 48 hrs in presence of ROS scavenger NAC by C11 BODIPY 581/591 staining based flow cytometry; format: functional, cell-based
HT-29 [20] = test: Induction of ferroptosis in human HT-29 cells assessed as decrease in intracellular GSH level incubated for 48 hrs in presence of ferroptosis inhibitor deferoxamine; format: functional, cell-based
HT-29 [21] = test: Induction of ROS production in human HT-29 cells assessed as increase in red fluorescence intensity incubated for 48 hrs by DHE fluorescent probe based flow cytometry; format: functional, cell-based
HT-29 [22] = test: Induction of ferroptosis in human HT-29 cells assessed as decrease in GPx level incubated for 48 hrs in presence of autophagy inhibitor 3-methyladenine; format: functional, cell-based
HT-29 [23] = test: Induction of ferroptosis in human HT-29 cells assessed as decrease in GPx level incubated for 48 hrs in presence of ferroptosis inhibitor deferoxamine; format: functional, cell-based
HT-29 [24] = test: Induction of ferroptosis in human HT-29 cells assessed as fusion of mitochondrial cristae incubated for 48 hrs by transmission electron microscopic analysis; format: functional, cell-based
HT-29 [25] = test: Induction of cell cycle arrest in human HT-29 cells assessed as […] of CDK1 expression at 0.5 to 4 uM incubated for 48 hrs by Western blotting analysis; format: functional, cell-based; conditions: dose 0.5-4 µM
HeLa = test: Antiproliferative activity against human HeLa cells assessed as inhibition of cell growth incubated for 48 hrs by MTT assay; format: functional, cell-based
HT-29 [26] = test: Antiproliferative activity against human HT-29 cells assessed as inhibition of cell growth at 1 to 10 uM incubated for 48 hrs by MTT assay; format: functional, cell-based; conditions: dose 1-10 µM
HT-29 [27] = test: Induction of cell death in human HT-29 cells incubated for 48 hrs in presence of ferroptosis inhibitor CPX by MTT assay; format: functional, cell-based
HT-29 [28] = test: Antiproliferative activity against human HT-29 cells assessed as inhibition of cell growth incubated for 48 hrs in presence of ROS scavenger NAC by MTT assay; format: functional, cell-based
HT-29 [29] = test: Induction of ferroptosis in human HT-29 cells assessed as increase in intracellular iron level incubated for 48 hrs in presence of ROS scavenger NAC; format: functional, cell-based
HT-29 [30] = test: Induction of ferroptosis in human HT-29 cells assessed as decrease in GPx level at 1 to 4 uM incubated for 48 hrs; format: functional, cell-based; conditions: dose 1-4 µM
HT-29 [31] = test: Induction of autophagy in human HT-29 cells assessed as upregulation of ATG7 protein expression incubated for 48 hrs by Western blotting analysis; format: functional, cell-based
HT-29 [32] = test: Induction of ferroptosis in human HT-29 cells assessed as increase in intracellular iron level incubated for 48 hrs; format: functional, cell-based
HepG2 = test: Antiproliferative activity against human HepG2 cells assessed as inhibition of cell growth incubated for 48 hrs by MTT assay; format: functional, cell-based; conditions: HepG2, 48 h
HT-29 [33] = test: Induction of cell cycle arrest in human HT-29 cells assessed as downregulation of Cyclin B1 expression at 0.5 to 4 uM incubated for 48 hrs by Western blotting analysis; format: functional, cell-based; conditions: dose 0.5-4 µM
HT-29 [34] = test: Induction of ferroptosis in human HT-29 cells assessed as increase in intracellular lipid peroxidation accumulation incubated for 48 hrs in presence of autophagy inhibitor 3-methyladenine by C11 BODIPY 581/591 staining based flow cytometry; format: functional, cell-based
HT-29 [35] = test: Induction of ferroptosis in human HT-29 cells assessed as increase in intracellular malondialdehyde accumulation incubated for 48 hrs in presence of ferroptosis inhibitor CPX; format: functional, cell-based
HT-29 [36] = test: Antiproliferative activity against human HT-29 cells assessed as inhibition of cell growth incubated for 48 hrs in presence of autophagy inhibitor 3-methyladenine by MTT assay; format: functional, cell-based
K562 = test: Antiproliferative activity against human K562 cells assessed as inhibition of cell growth incubated for 48 hrs by MTT assay; format: functional, cell-based; conditions: K562, 48 h
HT-29 [37] = test: Induction of ferroptosis in human HT-29 cells assessed as increase in mitochondrial membrane density incubated for 48 hrs in presence of ferroptosis inhibitor deferoxamine by transmission electron microscopic analysis; format: functional, cell-based
HT-29 [38] = test: Induction of ferroptosis in human HT-29 cells assessed as decrease in intracellular GSH level incubated for 48 hrs in presence of ferroptosis inhibitor CPX; format: functional, cell-based

COc1ccc2c(c1)NCCN2C(=O)NCCCl
inactive: Activity (HT-29 [1]) | Activity (HT-29 [3]) | Activity (HT-29 [7]) | Activity (HT-29 [8]) | Activity (HT-29 [12]) | Activity (HT-29 [14]) | Activity (HT-29 [19]) | Activity (HT-29 [20]) | Activity (HT-29 [23]) | Activity (HT-29 [27]) | Activity (HT-29 [28]) | Activity (HT-29 [29]) | Activity (HT-29 [35]) | Activity (HT-29 [36]) | Activity (HT-29 [37]) | Activity (HT-29 [38])
13.8 µM: IC50 (HepG2)
active: Activity (Cell membrane [4]) Dose-Dependent Effect | Activity (HT-29 [5]) | Activity (HT-29 [6]) | Activity (Cell membrane [9]) Dose-Dependent Effect | Activity (HT-29 [10]) | Activity (HT-29 [11]) Dose-Dependent Effect | Activity (HT-29 [13]) Dose-Dependent Effect | Activity (HT-29 [16]) Dose-Dependent Effect | Activity (HT-29 [17]) | Activity (HT-29 [18]) Dose-Dependent Effect | Activity (HT-29 [21]) | Activity (HT-29 [22]) | Activity (HT-29 [24]) | Activity (HT-29 [25]) | Activity (HT-29 [26]) | Activity (HT-29 [30]) | Activity (HT-29 [31]) Dose-Dependent Effect | Activity (HT-29 [32]) Dose-Dependent Effect | Activity (HT-29 [33]) | Activity (HT-29 [34])
4.92 µM: IC50 (K562)
>80%: Activity (HT-29 [2])
1.97 µM: IC50 (HT-29 [15])
6.18 µM: IC50 (HeLa)
